From US11285156B2, “Substituted piperazines as KRAS G12C inhibitors” (Amgen Inc., priority 2018, dated 2022) come the findings set out here.

Where two headings read alike, the source gives them in different places. Some results are limits rather than exact numbers.

Test [1] has as its system Phosphorylation of ERK1/2 in A549 cells. The test is described as follows: Phospho-ERK1/2 MSD assay in A549 cells. Conditions: read-out: p-ERK IC50 (2 h, A549; μM), 2 h compound treatment, A549 cells, EGF stimulated. Format: cell-based. The gist of the method:
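Readout: MSD phospho-ERK1/2 signal after compound (2 or 4 h) and 10 min EGF stimulation at 10 ng/mL.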

The target of test [2] is GDP-bound KRAS protein (aa 1-169), containing both G12C and C118A amino acid substitutions (Homo sapiens (Human), UniProt P01116, C118A/G12C). The test is described as follows: Coupled nucleotide exchange assay (SOS-mediated nucleotide exchange, AlphaScreen). Format: biochemical. Conditions: 5 min compound pre-incubation; for IC50: read-out: Coupled exchange IC50 (5 min; μM). On the technique in general: Alpha assays give light when donor and acceptor beads are brought close together.
Chain of GDP-bound KRAS protein (aa 1-169), containing both G12C and C118A amino acid substitutions (P01116 other isoform, or with tags, fused parts or gaps G12C/C118A): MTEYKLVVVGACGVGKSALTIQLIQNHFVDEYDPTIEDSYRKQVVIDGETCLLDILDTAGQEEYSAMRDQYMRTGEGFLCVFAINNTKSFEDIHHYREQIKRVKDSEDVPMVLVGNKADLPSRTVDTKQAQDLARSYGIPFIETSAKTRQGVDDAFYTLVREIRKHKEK
Description: Coupled Nucleotide Exchange Assay:
Following compound pre-incubation, purified SOS protein (aa 564-1049) and GTP (Roche 10106399001) were added to the assay wells and incubated for an additional 30 min (for 5 min compound pre-incubation) or 1 hour (for 2 hour compound pre-incubation). […] The assay plates were then read on a PerkinElmer EnVision Multilabel Reader, using AlphaScreen® technology, and data were analyzed using a 4-parameter logistic model to calculate IC50 values.

The test system of test [3] is Phosphorylation of ERK1/2 in MIA PaCa-2 cells. The test is described as follows: Phospho-ERK1/2 MSD assay in MIA PaCa-2 cells. The format is cell-based. The conditions noted are these: read-out: p-ERK IC50 (2 h, MiaPaCa-2; μM), 2 h compound treatment, MIA PaCa-2 cells, EGF stimulated. In short, it runs like this: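 Phospho-ERK1/2 measured by MSD electrochemiluminescence kit in RIPA lysates of MIA PaCa-2 cells. Cells were treated with compound titrations for 2 or 4 h at 37 °C, 5% CO2, followed by a 10 min pulse of 10 ng/mL EGF.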

Turning to `C=CC(=O)N1C[C@H](C)N(c2nc(=O)n(-c3c(C)ccnc3C(C)C)c3nc(-c4ccccc4C(C)O)c(Cl)cc23)C[C@H]1C` (mixture of isomers) [Example 92-43, (M)-6-Chloro-4-[(2S,5R)-2,5-dimethyl-4-prop-2-enoyl-piperazin-1-yl]-7-[2-[(1RS)-1-hydroxyethyl]phenyl]-1-(2-isopropyl-4-methyl-3-pyridyl)pyrido [2,3-d]pyrimidin-2-one], the IC50 – broadly, the concentration that gives 50% inhibition – in test [1] (Homo sapiens, A549, 2 h) was more than 7.5 µM; in test [3] (Homo sapiens, MIA PaCa-2, 2 h), 0.076 µM. For the same molecule, the “Coupled exchange IC50 (5 min; μM)” value in test [2] was 0.054 µM.

As to `C=CC(=O)N1C[C@H](C)N(c2nc(=O)n(-c3c(N(C)C)ccnc3C(C)C)c3nc(-c4ccccc4F)c(Cl)cc23)C[C@H]1C` (single isomer, unassigned) [Example 55-51-1], the IC50 in test [1] was more than 7.5 µM; in test [2], 0.298 µM; in test [3], 0.157 µM.

As for `C=CC(=O)N1C[C@H](C)N(c2nc(=O)n(-c3c(N(C)C)ccnc3C(C)C)c3nc(-c4ccccc4F)c(Cl)cc23)C[C@H]1C` (single isomer, unassigned) [Example 55-51-2], the results for the IC50 in test [1], in test [2] and in test [3] were more than 7.5 µM, 0.07 µM and 0.037 µM, respectively.

For `C=CC(=O)N1C[C@H](C)N(c2nc(=O)n(-c3c(CC)ccnc3C(C)C)c3nc(-c4ccccc4F)c(Cl)cc23)C[C@H]1C` (single isomer, unassigned) [Example 55-58-1], the IC50 was more than 7.5 µM in test [1], 0.03 µM in test [2] and 0.107 µM in test [3].

In the case of `C=CC(=O)N1C[C@H](C)N(c2nc(=O)n(-c3c(CC)ccnc3C(C)C)c3nc(-c4ccccc4F)c(Cl)cc23)C[C@H]1C` (single isomer, unassigned) [Example 55-58-2], the IC50 in test [1] is more than 7.5 µM; in test [2], 0.092 µM; in test [3] it was 0.101 µM.

Take `C=CC(=O)N1C[C@H](C)N(c2nc(=O)n(-c3c(CN4CCCC4)cccc3C(C)C)c3nc(-c4ccccc4F)c(Cl)cc23)C[C@H]1C` (single isomer, unassigned) [Example 80-10-2]: the half-maximal inhibitory concentration (IC50) is more than 7.5 µM in test [1], 0.053 µM in test [2] and 0.04 µM in test [3].

On to `C=CC(=O)N1C[C@H](C)N(c2nc(=O)n(-c3c(CN(C)C)cccc3C(C)C)c3nc(-c4ccccc4F)c(Cl)cc23)C[C@H]1C` (single isomer, unassigned) [Example 80-14-2], for which the IC50 in test [1] (Homo sapiens, A549, 2 h) is more than 7.5 µM; in test [2], 0.061 µM; in test [3] (Homo sapiens, MIA PaCa-2, 2 h) it was 0.031 µM.

Take `C=CC(=O)N1C[C@H](C)N(c2nc(=O)n(-c3c(CN(C)C)ccnc3C(C)C)c3nc(-c4ccccc4F)c(Cl)cc23)C[C@H]1C` (single isomer, unassigned) [Example 80-16-1]: the IC50 in test [1] (Homo sapiens, A549, 2 h) is more than 7.5 µM; in test [2], 0.061 µM; in test [3] (Homo sapiens, MIA PaCa-2, 2 h), 0.041 µM.

With `C=CC(=O)N1C[C@H](C)N(c2nc(=O)n(-c3c(CN(C)C)ncnc3C(C)C)c3nc(-c4ccccc4F)c(Cl)cc23)C[C@H]1C` (single isomer, unassigned) [Example 80-18-2], the IC50 is more than 7.5 µM in test [1] (Homo sapiens, A549, 2 h); 0.11 µM in test [2]; 0.044 µM in test [3] (Homo sapiens, MIA PaCa-2, 2 h).

For `C=CC(=O)N1C[C@H](C)N(c2nc(=O)n(-c3c(C)cc(CN(C)C)cc3C(C)C)c3nc(-c4ccccc4F)c(F)cc23)C[C@H]1C` (single isomer, unassigned) [Example 80-20-2], the IC50 in test [1] is more than 7.5 µM; in test [2] it was 0.368 µM; in test [3] it was 0.295 µM.

Consider `C=CC(=O)N1C[C@H](C)N(c2nc(=O)n(-c3c(C)cc(CN(C)C)cc3C(C)C)c3nc(-c4c(O)cccc4F)c(F)cc23)C[C@H]1C` (single isomer, unassigned) [Example 80-21-2], for which the values for the concentration for half-maximal inhibition (IC50) in test [1], in test [2] and in test [3] were more than 7.5 µM, 0.061 µM and 0.072 µM, respectively.

As to `C=CC(=O)N1C[C@H](C)N(c2nc(=O)n(-c3c(C(C)C)cnn3C(C)C)c3nc(-c4ccccc4F)c(Cl)cc23)C[C@H]1C` (single isomer, unassigned) [Example 100-1-1], the IC50 in test [1] is more than 7.5 µM; in test [2] it was 0.061 µM; in test [3] it was 0.091 µM.

With `C=CC(=O)N1C[C@H](C)N(c2nc(=O)n(-c3c(C(C)C)cnn3C(C)C)c3nc(-c4ccccc4F)c(Cl)cc23)C[C@H]1C` (single isomer, unassigned) [Example 100-1-2], the IC50 is more than 7.5 µM in test [1], 0.062 µM in test [2] and 0.098 µM in test [3].

With `C=CC(=O)N1C[C@H](C)N(c2nc(=O)n(-c3c(Cl)ncnc3C(C)C)c3nc(-c4ccccc4F)c(Cl)cc23)C[C@H]1C` (single isomer, unassigned) [Example 102-5-1], the IC50 is more than 7.5 µM in test [1], 0.031 µM in test [2] and 0.058 µM in test [3].

For `C=CC(=O)N1C[C@H](C)N(c2nc(=O)n(-c3c(Cl)ncnc3C(C)C)c3nc(-c4ccccc4F)c(Cl)cc23)C[C@H]1C` (single isomer, unassigned) [Example 102-5-2], the IC50 was more than 7.5 µM in test [1], 0.173 µM in test [2] and 0.873 µM in test [3].

In the case of `C=CC(=O)N1C[C@H](C)N(c2nc(=O)n(-c3c(Cl)ncnc3C(C)C)c3nc(-c4ccccc4C)c(Cl)cc23)C[C@H]1C` (single isomer, unassigned) [Example 102-6-1], the IC50 in test [1] is more than 7.5 µM; in test [2], 0.094 µM; in test [3], 0.056 µM.

For the molecule `C=CC(=O)N1C[C@H](C)N(c2nc(=O)n(-c3c(C)cc(P(C)(C)=O)cc3C(C)C)c3nc(-c4ccccc4F)c(Cl)cc23)C[C@H]1C` (single isomer, unassigned) [Example 102-7-1], the IC50 is more than 7.5 µM in test [1] (Homo sapiens, A549, 2 h); 0.181 µM in test [2]; 1.06 µM in test [3] (Homo sapiens, MIA PaCa-2, 2 h).

In the case of `C=CC(=O)N1C[C@H](C)N(c2nc(=O)n(-c3c(N(C)C)ccnc3C(C)C)c3nc(-c4ccccc4C(C)C)c(Cl)cc23)C[C@H]1C` (single isomer, unassigned) [Example 103-1-2], the concentration for half-maximal inhibition (IC50) is more than 7.5 µM in test [1], 0.053 µM in test [2] and 0.039 µM in test [3].

For `C=CC(=O)N1C[C@H](C)N(c2nc(=O)n(-c3c(N(CC)CC)ccnc3C(C)C)c3nc(-c4ccccc4C(C)C)c(Cl)cc23)C[C@H]1C` (single isomer, unassigned) [Example 103-6-2], the IC50 in test [1] amounted to 5.19 µM; in test [2] it was 0.112 µM; in test [3], 0.26 µM.

For `C=CC(=O)N1C[C@H](C)N(c2nc(=O)n(-c3c(N(C)C)ccnc3C(C)C)c3nc(-c4ccccc4C)c(Cl)cc23)C[C@H]1C` (single isomer, unassigned) [Example 103-7-2], the IC50 in test [1] is more than 7.5 µM; in test [2], 0.088 µM; in test [3], 0.052 µM.

On to `C=CC(=O)N1C[C@H](C)N(c2nc(=O)n(-c3c(C)ccnc3C(C)C)c3nc(-c4ccccc4F)c(Cl)nc23)C[C@H]1C` (single isomer, unassigned) [Example 106-6-2], for which the IC50 in test [1] (Homo sapiens, A549, 2 h) was more than 7.5 µM; in test [2], 0.059 µM; in test [3] (Homo sapiens, MIA PaCa-2, 2 h), 0.301 µM.

Regarding `C=CC(=O)N1C[C@H](C)N(c2nc(=O)n(-c3c(C(C)C)ncnc3C3CC3)c3nc(-c4ccccc4F)c(Cl)cc23)C[C@H]1C` (single isomer, unassigned) [Example 108-1-1], the IC50 in test [1] is more than 7.5 µM; in test [2] it was 0.006 µM; in test [3], 0.021 µM.

For the molecule `C=CC(=O)N1C[C@H](C)N(c2nc(=O)n(-c3c(C(C)C)ncnc3C3CC3)c3nc(-c4ccccc4F)c(Cl)cc23)C[C@H]1C` (single isomer, unassigned) [Example 108-1-2], the values for the IC50 in test [1], in test [2] and in test [3] were more than 7.5 µM, 0.008 µM and 0.054 µM, respectively.

For `C=CC(=O)N1C[C@H](C)N(c2nc(=O)n(-c3c(C(C)C)ncnc3C3CC3)c3nc(-c4ccccc4C)c(Cl)cc23)C[C@H]1C` (single isomer, unassigned) [Example 108-2-1], the figures for the IC50 in test [1], in test [2] and in test [3] were more than 7.5 µM, 0.035 µM and 0.046 µM, respectively.

As for `C=CC(=O)N1C[C@H](C)N(c2nc(=O)n(-c3c(C(C)C)ncnc3C3CC3)c3nc(-c4ccccc4C)c(Cl)cc23)C[C@H]1C` (single isomer, unassigned) [Example 108-2-2], the IC50 in test [1] was more than 7.5 µM; in test [2], 0.181 µM; in test [3], 0.148 µM.

In the case of `C=CC(=O)N1C[C@H](C)N(c2nc(=O)n(-c3c(CC)ncnc3C(C)C)c3nc(-c4ccccc4F)c(Cl)cc23)C[C@H]1C` (single isomer, unassigned) [Example 109-1-1], the 50% inhibitory concentration (IC50) in test [1] is more than 7.5 µM; in test [2] it was 0.06 µM; in test [3], 0.045 µM.

`C=CC(=O)N1C[C@H](C)N(c2nc(=O)n(-c3c(CC)ncnc3C(C)C)c3nc(-c4ccccc4F)c(Cl)cc23)C[C@H]1C` (single isomer, unassigned) [Example 109-1-2]: the IC50 in test [1] was more than 7.5 µM; in test [2], 0.209 µM; in test [3], 0.08 µM.

Take `C=CC(=O)N1C[C@H](C)N(c2nc(=O)n(-c3c(CC)ncnc3C(C)C)c3nc(-c4ccccc4C)c(Cl)cc23)C[C@H]1C` (single isomer, unassigned) [Example 109-2-1]: the IC50 is more than 7.5 µM in test [1], 0.059 µM in test [2] and 0.065 µM in test [3].
